Test results reported in the supplement of paper PMC10307832.

Tests used:
Test in all cases: relative viability (nuclei count vs DMSO), 5 days (fraction); higher = more cells survive
BAY61-3606 + Bortezomib = compound: COC1=C(C=C(C=C1)C2=CC3=NC=CN3C(=N2)NC4=C(C=CC=N4)C(=O)N)OC [BAY61-3606] + CC(C)C[C@H](NC(=O)[C@H](Cc1ccccc1)NC(=O)c1cnccn1)B(O)O [Bortezomib] (partner 0.002 µM)
Summary of the method: (§1)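 Values are medians from duplicate plates. Each reflects relative viability, defined as the nuclei count of treated wells over that of vehicle wells. Lung cancer cell lines in 1536-well plates were pin-tool dosed one day after seeding with one drug alone or with a fixed anchor-drug dose plus five library-drug doses (not always all listed) in √10 steps, then fixed, stained and imaged at 4× after 5 days.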

BAY61-3606 + Pictilisib = compound: COC1=C(C=C(C=C1)C2=CC3=NC=CN3C(=N2)NC4=C(C=CC=N4)C(=O)N)OC [BAY61-3606] + CS(=O)(=O)N1CCN(Cc2cc3nc(-c4cccc5[nH]ncc45)nc(N4CCOCC4)c3s2)CC1 [Pictilisib] (partner 1 µM)
Summary of the method: as §1

BAY61-3606 + Olaparib = compound: COC1=C(C=C(C=C1)C2=CC3=NC=CN3C(=N2)NC4=C(C=CC=N4)C(=O)N)OC [BAY61-3606] + O=C(c1cc(Cc2n[nH]c(=O)c3ccccc23)ccc1F)N1CCN(C(=O)C2CC2)CC1 [Olaparib] (partner 8 µM)
Summary of the method: as §1

Doxorubicin + Dasatinib = compound: COc1cccc2c1C(=O)c1c(O)c3c(c(O)c1C2=O)C[C@@](O)(C(=O)CO)C[C@@H]3O[C@H]1C[C@H](N)[C@H](O)[C@H](C)O1 [Doxorubicin] + Cc1nc(Nc2ncc(C(=O)Nc3c(C)cccc3Cl)s2)cc(N2CCN(CCO)CC2)n1 [Dasatinib] (partner 0.075 µM)
Summary of the method: as §1

Row | Cell Line | relative viability (BAY61-3606 + Bortezomib; first compound 0.02 µM) | relative viability (BAY61-3606 + Bortezomib; first compound 0.06325 µM) | relative viability (BAY61-3606 + Bortezomib; first compound 0.2 µM) | relative viability (BAY61-3606 + Bortezomib; first compound 0.6325 µM) | relative viability (BAY61-3606 + Bortezomib; first compound 2 µM) | relative viability (BAY61-3606 + Pictilisib; first compound 0.02 µM) | relative viability (BAY61-3606 + Pictilisib; first compound 0.06325 µM) | relative viability (BAY61-3606 + Pictilisib; first compound 0.2 µM) | relative viability (BAY61-3606 + Pictilisib; first compound 0.6325 µM) | relative viability (BAY61-3606 + Pictilisib; first compound 2 µM) | relative viability (BAY61-3606 + Olaparib; first compound 0.02 µM) | relative viability (BAY61-3606 + Olaparib; first compound 0.06325 µM) | relative viability (BAY61-3606 + Olaparib; first compound 0.2 µM) | relative viability (BAY61-3606 + Olaparib; first compound 0.6325 µM) | relative viability (BAY61-3606 + Olaparib; first compound 2 µM) | relative viability (Doxorubicin + Dasatinib; first compound 0.001 µM) | relative viability (Doxorubicin + Dasatinib; first compound 0.003162 µM) | relative viability (Doxorubicin + Dasatinib; first compound 0.01 µM) | relative viability (Doxorubicin + Dasatinib; first compound 0.03162 µM) | relative viability (Doxorubicin + Dasatinib; first compound 0.1 µM)
1 | NCI-H727 | 0.844 | 0.822 | 0.872 | 0.856 | 0.829 | 0.443 | 0.4 | 0.392 | 0.386 | 0.267 | 0.586 | 0.643 | 0.752 | 0.68 | 0.627 | 0.271 | 0.46 | 0.305 | 0.368 | 0.329
2 | A-427 | 1.04 | 0.889 | 0.994 | 1.05 | 0.871 | 0.846 | 0.709 | 0.744 | 0.751 | 0.646 | 0.79 | 0.694 | 0.765 | 0.777 | 0.715 | 0.745 | 0.743 | 0.621 | 0.721 | 0.673
3 | EMC-BAC-2 | 1.11 | 1.13 | 1.06 | 1.09 | 1.08 | 0.602 | 0.522 | 0.47 | 0.632 | 0.527 | 0.493 | 0.52 | 0.48 | 0.493 | 0.457 | 0.357 | 0.316 | 0.263 | 0.171 | 0.12
4 | NCI-H647 | 1.16 | 1.06 | 1.19 | 1.07 | 0.696 | 0.622 | 0.297 | 0.435 | 0.404 | 0.365 | 0.729 | 0.743 | 0.574 | 0.432 | 0.237 | 0.186 | 0.212 | 0.166 | 0.152 | 0.0503
5 | LCLC-97TM1 | 0.639 | 0.73 | 0.527 | 0.533 | 0.702 | 0.272 | – | 0.28 | 0.178 | 0.179 | 0.498 | 0.365 | 0.462 | 0.336 | 0.389 | 0.836 | 0.776 | 0.831 | 0.734 | 0.884
6 | HOP-62 | 0.869 | – | 1.16 | 0.443 | 0.723 | 0.68 | – | 0.582 | 0.783 | 0.53 | 0.476 | 0.569 | 0.279 | 0.505 | 0.376 | 0.68 | 0.737 | 0.601 | 0.628 | 0.552
7 | NCI-H1437 | 0.544 | 0.502 | 0.433 | 0.536 | 0.509 | 0.532 | 0.44 | 0.507 | 0.442 | 0.391 | 0.634 | 0.687 | 0.607 | 0.621 | 0.555 | 0.369 | 0.391 | 0.3 | 0.459 | 0.152
8 | NCI-H1755 | 0.953 | 0.961 | 0.957 | 1.07 | 0.923 | 0.532 | 0.35 | 0.463 | 0.415 | 0.385 | 0.908 | 0.883 | 0.852 | 0.911 | 0.789 | 0.444 | 0.288 | 0.437 | 0.434 | 0.554
9 | HARA | 1.08 | 1.14 | 1.19 | 1.09 | 1.1 | 0.444 | 0.371 | 0.372 | 0.39 | 0.312 | 1.02 | 0.929 | 1.06 | 0.845 | 0.619 | 0.26 | 0.344 | 0.296 | 0.261 | 0.23
10 | HCC-15 | 1.04 | 1.06 | 0.967 | 0.937 | 1.01 | 0.848 | 0.65 | 0.697 | 0.769 | 0.665 | 0.668 | 0.685 | 0.729 | 0.719 | 0.655 | – | 0.654 | 0.493 | 0.191 | 0.0861
11 | LOU-NH91 | 0.52 | 0.485 | 0.462 | 0.467 | 0.454 | 0.566 | 0.544 | 0.568 | 0.505 | 0.472 | 0.944 | 0.922 | 0.903 | 0.944 | 0.728 | 0.488 | 0.646 | 0.529 | 0.531 | 0.474
12 | NCI-H23 | 0.97 | 1.36 | 0.871 | 1.13 | 0.77 | 0.743 | 0.522 | 0.49 | 0.522 | 0.382 | 0.327 | 0.304 | 0.289 | 0.305 | 0.288 | – | 1.01 | 0.88 | 0.668 | 0.547
13 | NCI-H1666 | 0.99 | – | 0.836 | 0.806 | 0.683 | 0.521 | – | 0.447 | 0.375 | 0.395 | 0.767 | 0.827 | 0.748 | 0.754 | 0.724 | 0.812 | 0.811 | 0.461 | 0.359 | 0.318
14 | NCI-H358 | – | – | – | – | – | 0.385 | 0.327 | 0.333 | 0.321 | 0.167 | 0.654 | 0.601 | 0.751 | 0.573 | 0.449 | 0.175 | 0.161 | 0.159 | 0.0904 | 0.0827
15 | NCI-H2085 | 1.11 | 1.07 | 1.06 | 1.13 | 0.953 | 0.376 | 0.487 | 0.499 | 0.459 | 0.601 | 0.863 | 0.868 | 0.726 | 0.843 | 0.698 | 0.286 | 0.278 | 0.224 | 0.224 | 0.241
16 | LCLC-103H | 1.28 | 1.01 | 1.03 | 1.07 | 1.05 | 0.646 | 0.737 | 0.654 | 0.542 | 0.646 | 0.764 | 0.786 | 0.847 | 0.758 | 0.772 | 0.507 | 0.6 | 0.446 | 0.381 | 0.552
